Test results: ChEMBL document CHEMBL1201862, “PubChem BioAssay data set” (2004)
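Results reflect a 48-hour exposure of cells in 96-well plates to compound at five concentrations. GI50 marks 50% less growth.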 The source made the active and inactive calls. Rule as the data show it: active = GI50 up to about 1.1 µM and inactive = higher.

How the values were obtained:
Test in all cases: NCI tumour cell line growth inhibition, 48 h
SN12C = system: SN12C
SW-620 = system: SW-620
SK-MEL-2 = system: SK-MEL-2
KM12 = system: KM12
HCC 2998 = system: HCC 2998
HOP-62 = system: HOP-62
HT-29 = system: HT-29
K562 = system: K562
SK-OV-3 = system: SK-OV-3
SF-268 = system: SF-268
RPMI-8226 = system: RPMI-8226
LOX IMVI = system: LOX IMVI
SNB-19 = system: SNB-19
NCI-H460 = system: NCI-H460
IGROV-1 = system: IGROV-1
NCI-H226 = system: NCI-H226
OVCAR-5 = system: OVCAR-5
NCI-H522 = system: NCI-H522

Row | SMILES | GI50 (SN12C) | GI50 (SW-620) | GI50 (SK-MEL-2) | GI50 (KM12) | GI50 (HCC 2998) | GI50 (HOP-62) | GI50 (HT-29) | GI50 (K562) | GI50 (SK-OV-3) | GI50 (SF-268) | GI50 (RPMI-8226) | GI50 (LOX IMVI) | GI50 (SNB-19) | GI50 (NCI-H460) | GI50 (IGROV-1) | GI50 (NCI-H226) | GI50 (OVCAR-5) | GI50 (NCI-H522)
1 | CCOP(=O)(OCC)C1CCCCOC1=O (stereo not drawn) | 95.9 µM (inactive) | > 100 µM (inactive) | > 100 µM (inactive) | > 100 µM (inactive) | > 100 µM (inactive) | > 100 µM (inactive) | > 100 µM (inactive) | 44 µM (inactive) | > 100 µM (inactive) | > 100 µM (inactive) | > 100 µM (inactive) | 19.9 µM (inactive) | > 100 µM (inactive) | 51.2 µM (inactive) | > 100 µM (inactive) | – | – | –
2 | CP1(=O)CCCCC1 | > 100 µM (inactive) | > 100 µM (inactive) | > 100 µM (inactive) | > 100 µM (inactive) | > 100 µM (inactive) | > 100 µM (inactive) | > 100 µM (inactive) | > 100 µM (inactive) | > 100 µM (inactive) | > 100 µM (inactive) | > 100 µM (inactive) | > 100 µM (inactive) | > 100 µM (inactive) | > 100 µM (inactive) | > 100 µM (inactive) | > 100 µM (inactive) | > 100 µM (inactive) | –
3 | CC1=C(C(=O)CC(=O)C(=O)Nc2ccccc2)Sc2ccccc2N1 | > 100 µM (inactive) | > 100 µM (inactive) | > 100 µM (inactive) | > 100 µM (inactive) | – | > 100 µM (inactive) | > 100 µM (inactive) | > 100 µM (inactive) | > 100 µM (inactive) | > 100 µM (inactive) | > 100 µM (inactive) | > 100 µM (inactive) | > 100 µM (inactive) | > 100 µM (inactive) | > 100 µM (inactive) | > 100 µM (inactive) | > 100 µM (inactive) | > 100 µM (inactive)
4 | O=C(Cn1ccnc1[N+](=O)[O-])NCc1ccc(F)cc1 | > 100 µM (inactive) | > 100 µM (inactive) | > 100 µM (inactive) | > 100 µM (inactive) | – | > 100 µM (inactive) | > 100 µM (inactive) | > 100 µM (inactive) | > 100 µM (inactive) | > 100 µM (inactive) | > 100 µM (inactive) | > 100 µM (inactive) | > 100 µM (inactive) | > 100 µM (inactive) | > 100 µM (inactive) | 40.2 µM (inactive) | > 100 µM (inactive) | > 100 µM (inactive)
5 | O=C(/C=C/c1ccc(Cl)c(Cl)c1)c1ccc(F)cc1 | 22.5 µM (inactive) | 2.05 µM (inactive) | – | 8.65 µM (inactive) | 16.6 µM (inactive) | > 100 µM (inactive) | 13.3 µM (inactive) | 4.33 µM (inactive) | 29 µM (inactive) | 28.2 µM (inactive) | 3.3 µM (inactive) | – | 16.8 µM (inactive) | 23.6 µM (inactive) | 20.3 µM (inactive) | 33.1 µM (inactive) | 18.3 µM (inactive) | 4.45 µM (inactive)
6 | Cc1cc2c(cc1C)[n+]([O-])c(C(=O)CC(=O)C(=O)Nc1c(C(C)C)cccc1C(C)C)c(C)[n+]2[O-] | > 100 µM (inactive) | > 100 µM (inactive) | > 100 µM (inactive) | > 100 µM (inactive) | > 100 µM (inactive) | > 100 µM (inactive) | > 100 µM (inactive) | > 100 µM (inactive) | > 100 µM (inactive) | > 100 µM (inactive) | > 100 µM (inactive) | > 100 µM (inactive) | > 100 µM (inactive) | > 100 µM (inactive) | > 100 µM (inactive) | > 100 µM (inactive) | > 100 µM (inactive) | > 100 µM (inactive)
7 | OC12c3ccccc3C1CCCCC2N1CCCC1 (stereo not drawn) | > 100 µM (inactive) | > 100 µM (inactive) | > 100 µM (inactive) | > 100 µM (inactive) | – | > 100 µM (inactive) | > 100 µM (inactive) | > 10 µM (inactive) | > 100 µM (inactive) | > 100 µM (inactive) | > 100 µM (inactive) | > 100 µM (inactive) | > 100 µM (inactive) | > 100 µM (inactive) | – | > 100 µM (inactive) | – | > 100 µM (inactive)
8 | CC(=O)OC1C2CCC1C1C2C2(Cl)C(Cl)=C(Cl)C1(Cl)C2(Cl)Cl (stereo not drawn) | 15.1 µM (inactive) | 14.5 µM (inactive) | 10.2 µM (inactive) | 13 µM (inactive) | – | 15.5 µM (inactive) | 12.3 µM (inactive) | – | 16 µM (inactive) | 17.7 µM (inactive) | 6.05 µM (inactive) | 15.2 µM (inactive) | 15.1 µM (inactive) | 14.3 µM (inactive) | 16.4 µM (inactive) | 13 µM (inactive) | 11.1 µM (inactive) | 12.3 µM (inactive)
9 | O=C1OCCC1(Cc1ccc(Cl)cc1)Cc1ccc(Cl)cc1 | > 100 µM (inactive) | > 100 µM (inactive) | 71.8 µM (inactive) | > 100 µM (inactive) | – | 31.3 µM (inactive) | > 100 µM (inactive) | > 100 µM (inactive) | > 100 µM (inactive) | > 100 µM (inactive) | > 100 µM (inactive) | – | 30 µM (inactive) | > 100 µM (inactive) | > 100 µM (inactive) | > 100 µM (inactive) | > 100 µM (inactive) | > 100 µM (inactive)
10 | COC(=O)C12C(=O)O[C@H](C)C1(O)C(C)C(=O)N2C (stereo partly drawn) | – | – | > 100 µM (inactive) | > 100 µM (inactive) | > 100 µM (inactive) | > 100 µM (inactive) | > 100 µM (inactive) | > 100 µM (inactive) | > 100 µM (inactive) | – | > 100 µM (inactive) | – | > 100 µM (inactive) | – | > 100 µM (inactive) | – | > 100 µM (inactive) | –
11 | C[C@@H](NC1CCC[C@H]1O)c1ccccc1 (stereo partly drawn) | > 100 µM (inactive) | > 100 µM (inactive) | > 100 µM (inactive) | > 100 µM (inactive) | > 100 µM (inactive) | > 100 µM (inactive) | > 100 µM (inactive) | > 100 µM (inactive) | > 100 µM (inactive) | – | > 100 µM (inactive) | > 100 µM (inactive) | > 100 µM (inactive) | > 100 µM (inactive) | > 100 µM (inactive) | > 100 µM (inactive) | > 100 µM (inactive) | –
12 | COCOCCC#CCO | > 100 µM (inactive) | > 100 µM (inactive) | > 100 µM (inactive) | > 100 µM (inactive) | > 100 µM (inactive) | – | > 100 µM (inactive) | > 100 µM (inactive) | > 100 µM (inactive) | > 100 µM (inactive) | > 100 µM (inactive) | > 100 µM (inactive) | > 100 µM (inactive) | > 100 µM (inactive) | > 100 µM (inactive) | – | > 100 µM (inactive) | 68.4 µM (inactive)
13 | C1CN2CCN3CCN4CCN1[PH]243 | > 100 µM (inactive) | > 100 µM (inactive) | > 100 µM (inactive) | > 100 µM (inactive) | > 100 µM (inactive) | > 100 µM (inactive) | > 100 µM (inactive) | > 100 µM (inactive) | > 100 µM (inactive) | – | > 100 µM (inactive) | > 100 µM (inactive) | > 100 µM (inactive) | > 100 µM (inactive) | > 100 µM (inactive) | > 100 µM (inactive) | > 100 µM (inactive) | > 100 µM (inactive)
14 | CCN(CC)CCCC(C)Nc1ccnc2ccc3nn(C)nc3c12 (stereo not drawn) | 38.9 µM (inactive) | 22.3 µM (inactive) | – | 42.3 µM (inactive) | 40.2 µM (inactive) | 76.6 µM (inactive) | 26.5 µM (inactive) | 23.4 µM (inactive) | > 100 µM (inactive) | > 100 µM (inactive) | 53 µM (inactive) | 17.9 µM (inactive) | > 100 µM (inactive) | 32.8 µM (inactive) | > 100 µM (inactive) | 39.6 µM (inactive) | > 100 µM (inactive) | –
15 | Cc1nc2ccccc2c(=O)n1/N=C(\N=N\c1ccc(Cl)cc1)c1ccc(N(C)C)cc1 | 56.9 µM (inactive) | > 100 µM (inactive) | – | – | – | 66.4 µM (inactive) | > 100 µM (inactive) | 36.6 µM (inactive) | > 100 µM (inactive) | 32.7 µM (inactive) | – | > 100 µM (inactive) | 48 µM (inactive) | 93.8 µM (inactive) | > 100 µM (inactive) | – | – | 38.7 µM (inactive)
16 | CN(C)CCCNC(=O)c1cccc2nc3ccccc3nc12 | 23.2 µM (inactive) | 8.13 µM (inactive) | 14.8 µM (inactive) | 13.5 µM (inactive) | 14.8 µM (inactive) | 19.9 µM (inactive) | 6.75 µM (inactive) | 7.46 µM (inactive) | > 52.1 µM (inactive) | 0.32 µM (active) | 20.1 µM (inactive) | 6.52 µM (inactive) | 19.8 µM (inactive) | – | 34.2 µM (inactive) | 12 µM (inactive) | 20.9 µM (inactive) | 26.6 µM (inactive)
17 | CC1=NN(C(=O)Nc2ccc(Cl)cc2)C(=O)C2CCC(=O)N12 (stereo not drawn) | > 100 µM (inactive) | > 100 µM (inactive) | > 100 µM (inactive) | 28.9 µM (inactive) | > 100 µM (inactive) | > 100 µM (inactive) | – | 3.19 µM (inactive) | 38.7 µM (inactive) | 45.3 µM (inactive) | 93.3 µM (inactive) | 4.13 µM (inactive) | > 100 µM (inactive) | 28.3 µM (inactive) | > 100 µM (inactive) | – | – | –
18 | CCOC(=O)COS(=O)(=O)C(F)(F)F | > 100 µM (inactive) | – | > 100 µM (inactive) | > 100 µM (inactive) | > 100 µM (inactive) | > 100 µM (inactive) | > 100 µM (inactive) | > 100 µM (inactive) | > 100 µM (inactive) | 60.4 µM (inactive) | 23.9 µM (inactive) | 18.8 µM (inactive) | > 100 µM (inactive) | 41.9 µM (inactive) | > 100 µM (inactive) | > 100 µM (inactive) | > 100 µM (inactive) | > 100 µM (inactive)
